Laboratory results taken from publication PMC12608245, “Integrated Molecular and Functional Analysis of Hop Ethanolic Extract in Caco-2 Cells: Insights into Inflammation, Barrier Function, and Transport” (International Journal of Molecular Sciences, 2025).

Key:
[1] = test system: Caco-2 monolayers; test: Transport and metabolism of HLE constituents through Caco-2 monolayers; type: in vitro ADME; details: apical to basolateral, 24 h incubation of HLE with Caco-2, based on the peak area ratio
Method: Caco-2 cells were seeded and cultivated as described for the TEER measurements. After 21 days of cultivation, HLE solutions at concentrations of 12.5–100 µg/mL (prepared as for the cell viability assay) were added to the apical compartment. As a non-treated control, medium containing 0.5% DMSO was used. Supernatants from both the apical and basolateral compartments were collected at 0 h and 24 h for chromatographic analysis.
Analyses were performed using a Vanquish UHPLC system coupled with an Exploris 120 Orbitrap mass spectrometer (Thermo Scientific, Bremen, Germany) equipped with a Kinetex XB-C18 column (150 × 2.1 mm, 1.7 µm). Mobile phases consisted of (A) water and (B) acetonitrile:water (4:1, v/v), both containing 0.1% HCOOH and 5 mM NH4HCOO. […] Electrospray settings: spray voltage 3.5 kV (+)/2 kV (−); sheath/aux/sweep gas 48/11/2 Arb; ion transfer tube 320 °C; vaporizer 280 °C. Data were acquired in full-scan mode (resolution 120,000, polarity switching). MS2 spectra were obtained using stepped NCE 30/50% (resolution 15,000) and ddMS2 settings of four fragmentation scans per full scan, single-charge filter, isotope and dynamic exclusion enabled. Experimental samples were analyzed with and without fragmentation exclusion lists generated from control samples to enhance MS2 coverage. Data processing was performed in Compound Discoverer 3.4 (Thermo Scientific, Austin, TX, USA). Signals corresponding to hop extract constituents were identified based on comparison of donor compartment solution and method blank. Similarity analysis and molecular networking (mzMine 4.6) were based on shared fragments or constant m/z shifts.

[2] = test system: IL-6; test: IL-6 production in IL-1β-stimulated Caco-2 cells (ELISA); type: cell-based; details: IL-1β 10 ng/mL, 24 h
Method: (§1) Caco-2 cells were seeded in 48-well plates and cultured as described above. […] Prior to application, HLE was dissolved in DMSO and sterilely transferred into fresh serum-free medium. To remove high-molecular-weight pyrogens, the extract was subjected to a two-step ultrafiltration using a Microsep™ Advance Centrifugal Device with 30 kDa and 100 kDa cut-offs (Pall Corporation, Port Washington, NY, USA), as described in Kruk et al.. After ultrafiltration, 10% FBS was added to the medium. Following a one-hour pre-incubation, IL-1β was added to each well to achieve a final concentration of 10 ng/mL. After 24 h of incubation, the supernatants were collected, and IL-6 and IL-8 concentrations were determined using the sandwich ELISA method (BD Biosciences Pharmingen).

[3] = test system: IL-8; test: Caco-2 inflammatory model selection, IL-8 production (ELISA); type: cell-based; details: 24 h
Method: (§2) Cells were seeded in 48-well plates and cultured as described above. After reaching 100% confluence, they were stimulated with different concentrations and combinations of the following factors: TNF-α (1, 12.5, 25 ng/mL), LPS from E. coli (1, 5, 10 µg/mL), IFN-γ (1, 10, 50 ng/mL), a mixture of IFN-γ and TNF-α (1 + 1, 10 + 10, 50 + 50 ng/mL), and IL-1β (0.01, 0.02, 0.04, 0.08, 1, 12.5, 25 ng/mL). […] After 24 h of incubation, the supernatants were collected, and IL-6 and IL-8 concentrations were determined using the sandwich ELISA method (BD Biosciences Pharmingen, San Diego, CA, USA).

[4] = test system: IL-8; test: IL-8 production in IL-1β-stimulated Caco-2 cells (ELISA); type: cell-based; details: IL-1β-stimulated control, IL-1β 10 ng/mL, 24 h
Method: as §1

[5] = test system: Caco-2 monolayers; test: TEER measurement of Caco-2 monolayer; type: cell-based; details: for TEER: IL-1β control
Method: Caco-2 cells were cultivated in 6-well plates on a Transwell transparent insert (Greiner Bio-One, Kremsmünster, Austria) with density of 6 × 10^5 cells/insert for 21 days. (37 °C, 5% CO2) Medium that was used contained the earlier mentioned ingredients. Three mL of medium was added to the apical compartment, and 3.5 mL was added to the basolateral compartment. The medium was replaced three times per week. CellZscope systems for 24-well and 6-well formats (nanoAnalytics GmbH, Münster, Germany) were used to analyze the TEER. Solutions were made as described in Section 4.5 with concentrations 12.5–100 µg/mL. As non-treated control, medium containing 0.5% DMSO was used. The medium in the apical compartment was replaced with the HLE solutions or control. After a 24-h incubation period 25 ng/mL of IL-1β was added in basolateral compartment.

[6] = test system: IL-6; test: Caco-2 inflammatory model selection, IL-6 production (ELISA); type: cell-based; details: IL-1β 25 and 12.5 ng/mL, 24 h
Method: as §2

[7] = test system: Caco-2 monolayers; set-up: method as in Van de Walle et al. [20]; details: IL-1β 25 ng/mL, Caco-2 cell monolayers; ref Van de Walle et al. [20]; cited from earlier work

| Transport Efficiency (%) [1] [%] | Molecule | other results |
| --- | --- | --- |
| 11.7 | n-humulinone/adhumulinone isomer 2 [Peak M12] |  |
| 9 | CC(C)=CCC(=O)[C@@]1(O)C(=O)C(C(=O)C(C)C)=C(O)[C@@]1(O)CC=C(C)C [Peak M10, cohumulinone] |  |
| 9.5 | CC(C)=CCC1=C(O)C(O)(CC=C(C)C)C(=O)C(C(=O)C(C)C)=C1O (stereo not drawn) [Peak M14, cohumulone] |  |
|  | C[C@@H]1C[C@H]2[C@@H]3CCC4=CC(=O)C=C[C@]4(C)[C@@]3(F)[C@@H](O)C[C@]2(C)[C@@]1(O)C(=O)CO [Dexamethasone, reference compound] | IL-6 level ([2]; dexamethasone 20 µM (positive control), compared with the IL-1β-stimulated control): 3.7 ± 0.3% |
| 4.3 | CC(C)=CCC1=C(O)C(O)(CC=C(C)C)C(=O)C(C(=O)CCC(C)C)=C1O (stereo not drawn) [Peak M17, prehumulone] |  |
| 8 | n-humulone/adhumulone isomer 1 [Peak M15] |  |
| 17.4 | hydroxy-n-humulinone/hydroxyadhumolinone [Peak M11] |  |
| 6.9 | n-humulinone/adhumulinone isomer 1 [Peak M7] |  |
|  | TNF-α | IL-8 secretion versus non-treated control ([3]; TNF-α 25 and 12.5 ng/mL): significantly increased IL-8 secretion |
| 3.5 | COc1cc(O)c(CC=C(C)C)c(O)c1C(=O)/C=C/c1ccc(O)cc1 [Peak M13, xanthohumol] |  |
|  | IL-1β: pro-inflammatory cytokine used as inflammatory trigger | IL-8 secretion versus non-treated control ([3]; IL-1β 25, 12.5, 1, 0.08 and 0.04 ng/mL): significantly increased IL-8 secretion; IL-8 level [4]: 100.8 ± 5.5%; TEER ([5]; 33 h): 83.97 ± 4.20%; TEER ([5]; 42 h): 84.25 ± 1.33%; TEER value decrease ([5]; after 24 h of exposure to 25 ng/mL IL-1β): 16 ± 1%; IL-6 secretion versus non-treated control [6]: increase IL-6 at concentrations of 25 and 12.5 ng/mL significantly; TEER reduction [7]: approximately 20 ± 4%; IL-6 level ([2]; IL-1β-stimulated control): 103.3 ± 1.7% |
| 3.7 | hulupone/adhulupone [Peak M4] |  |
| 2 | tetrahydro-iso-α-acid [Peak M6] |  |
| 9.6 | n-humulone/adhumulone isomer 2 [Peak M16] |  |
